How the values were obtained:
[1] = target: human IRAK-4 (Homo sapiens (Human), UniProt Q9NWZ3); assay: Measurement of human IRAK-4 inhibitory activity (TR-FRET, peptide substrate phosphorylation, 10 μM ATP); assay type: biochemical; details: 1 nM IRAK-4, 10 μM ATP, 23° C., 30 minutes; average values
How it was run: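 With 1 nM IRAK-4, 0.5 μM biotinylated peptide and 10 μM ATP, compound incubated 30 min at 23 °C in 50 mM HEPES pH 7.2 with Mg2+/Mn2+. Stopped with EDTA plus europium-cryptate anti-phosphopeptide antibody and streptavidin-XL665, 60 min at 23 °C. Activity taken as the 665/620 nm TR-FRET ratio.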

[2] = system: LPS-stimulated TNFα production in THP-1 cells; assay: LPS-stimulated TNFα production inhibition test using human acute monocytic leukemia cell strain THP-1; assay type: cell-based; details: LPS 2.5 ng/mL, average values
How it was run: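 THP-1 cells were preincubated with compound for 1 h at 37 °C, then stimulated with LPS (2.5 ng/mL final) for 4 h. Supernatant TNFα was quantified by HTRF (620/665 nm ratio) against a calibration curve. IC50 came from a 4-parameter logistic fit, with no-LPS set as 100% and no-compound as 0% suppression.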

Sequence of human IRAK-4 (Q9NWZ3 whole entry): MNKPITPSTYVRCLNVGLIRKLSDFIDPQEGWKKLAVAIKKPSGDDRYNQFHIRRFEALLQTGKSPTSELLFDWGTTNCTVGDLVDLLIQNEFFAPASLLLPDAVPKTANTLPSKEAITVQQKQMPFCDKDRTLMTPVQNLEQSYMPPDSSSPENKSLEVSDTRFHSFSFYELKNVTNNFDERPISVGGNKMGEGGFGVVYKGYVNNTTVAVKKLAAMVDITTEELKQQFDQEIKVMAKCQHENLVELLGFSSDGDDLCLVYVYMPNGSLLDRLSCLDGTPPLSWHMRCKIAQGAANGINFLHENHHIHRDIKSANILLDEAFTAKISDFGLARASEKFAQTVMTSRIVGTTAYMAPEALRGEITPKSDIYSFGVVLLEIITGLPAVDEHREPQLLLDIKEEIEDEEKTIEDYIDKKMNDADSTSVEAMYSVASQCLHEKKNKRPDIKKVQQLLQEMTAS

Compound | IC50 [1] [nM] | IC50 ([2]; Homo sapiens, THP-1, 4 h) [nM] | IC50 ([2]; 4 hours) [nM]
C[C@H]1CN(C(=O)c2ccc(C(F)(F)F)nc2)CCN1[C@H]1C[C@@H](C(=O)Nc2cc3cc(-c4cnc(CO[C@H]5CCC[C@@H]5O)nc4)ccn3n2)C1 [e-02-03] | 2.23 | 67 | 
COc1c(-c2cnc(CO[C@H]3CCC[C@@H]3O)nc2)ccc2nc(NC(=O)[C@@H]3C[C@H]3C)sc12 [c-02-01] | 3.7 | 110 | 
O=C(Nc1nc2ccc(-c3cnc(CO[C@H]4CCC[C@@H]4O)nc3)cc2s1)[C@H]1C[C@H]1F [a-01-02] | 1.98 | 180 | 
CC[C@H]1CN(C(=O)C2CCOC2)CCN1C1CC(C(=O)Nc2nc3ccc(-c4cnc(CO[C@H]5CCC[C@@H]5O)nc4)cc3s2)C1 (some centres unmarked) [b-04-18] | 1.11 | 30 | 
CC1(C)CN(C2CC(C(=O)Nc3nc4ccc(-c5cnc(CO[C@H]6CCC[C@@H]6O)nc5)cc4s3)C2)CCO1 (some centres unmarked) [b-02-18] | 2.92 | 164 | 
CCCOCc1ncc(-c2ccc3nc(NC(=O)[C@H]4C[C@@H](N5CCN(C(=O)c6cc(C)ccn6)C[C@@H]5C)C4)sc3c2)cn1 [b-04-42] | 0.49 | 64 | 
CCCOCc1ncc(-c2ccn3nc(NC(=O)[C@H]4C[C@@H](N5CCN(C(=O)C6CCOC6)C[C@@H]5CC)C4)cc3c2)cn1 (some centres unmarked) [e-02-15] | 1.81 | 167 | 
C[C@H]1CN(C(=O)c2cccc(C(F)(F)F)n2)CCN1[C@H]1C[C@@H](C(=O)Nc2nc3ccc(-c4cnc(CO[C@H]5CCC[C@@H]5O)nc4)cc3s2)C1 [b-04-19] | 1.38 | 39 | 
O=C(Nc1nc2ccc(-c3cnc(CO[C@H]4CCC[C@@H]4O)nc3)cc2s1)C1CC(N2CC[C@H](O)C2)C1 (some centres unmarked) [b-02-40] | 1.62 | 139 | 
O=C(Nc1nc2ccc(-c3cnc(CO[C@H]4CCC[C@@H]4O)nc3)cc2s1)C1CC(N2CCOCC2C2CC2)C1 (some centres unmarked) [b-02-68] | 2.18 | 160 | 
CN(C1CC(C(=O)Nc2nc3ccc(-c4cnc(CO[C@H]5CCC[C@@H]5O)nc4)cc3s2)C1)[C@@H]1C[C@H]1C(F)(F)F (some centres unmarked) [b-03-07] | 5.26 | 183 | 
C[C@H]1CN(CC(F)(F)F)CCN1[C@H]1C[C@@H](C(=O)Nc2cc3cc(-c4cnc(CO[C@H]5CCC[C@@H]5O)nc4)ccn3n2)C1 [e-02-04] | 1.05 | 116 | 
C[C@H]1CN(C(=O)C2CCC2)CCN1[C@H]1C[C@@H](C(=O)Nc2cc3cc(-c4cnc(CO[C@H]5CCC[C@@H]5O)nc4)ccn3n2)C1 [e-02-06] | 1.3 | 113 | 
CCOCC(=O)N1CCN([C@H]2C[C@@H](C(=O)Nc3nc4ccc(-c5cnc(CO[C@H]6CCC[C@@H]6O)nc5)cc4s3)C2)[C@@H](C)C1 [b-04-08] | 2.48 | 53 | 
O=C(Nc1nc2ccc(-c3cnc(CO[C@H]4CCC[C@@H]4O)nc3)c(OCc3nccs3)c2s1)C1CC1 [c-06-02] | 10.7 | 317 | 
CCCO[C@H]1C[C@@H](C(=O)Nc2nc3ccc(-c4cnc(CO[C@H]5CCC[C@@H]5O)nc4)cc3s2)C1 [d-04-03] | 2.22 | 162 | 
CCOc1c(-c2cnc(CO[C@H]3CCC[C@@H]3O)nc2)ccc2nc(NC(=O)C3CC3)sc12 [c-04-02] | 6.33 | 207 | 
O=C(Nc1nc2ccc(-c3cnc(CO[C@H]4CCC[C@@H]4O)nc3)cc2s1)C1CC2(C1)CC(F)(F)C2 [d-01-06] | 3.62 | 174 | 
O=C(Nc1nc2ccc(-c3cnc(CO[C@H]4CCC[C@@H]4O)nc3)c(F)c2s1)C1CC1 [a-01-12] | 7.75 | 361 | 
O=C(Nc1nc2ccc(-c3cnc(CO[C@H]4CCC[C@@H]4O)nc3)cc2s1)C1CC(NC2(C(F)F)CC2)C1 (some centres unmarked) [b-02-56] | 1.76 | 109 | 

Compound | IC50 [1] [nM] | IC50 ([2]; Homo sapiens, THP-1, 4 h) [nM] | IC50 ([2]; 4 hours) [nM]
C[C@H]1CN(C(=O)Nc2ccccc2)CCN1[C@H]1C[C@@H](C(=O)Nc2nc3ccc(-c4cnc(CO[C@H]5CCC[C@@H]5O)nc4)cc3s2)C1 [b-06-02] | 4.19 | 46 | 
C[C@H]1CN(C(=O)c2cccnc2)CCN1[C@H]1C[C@@H](C(=O)Nc2cc3cc(-c4cnc(CO[C@H]5CCC[C@@H]5O)nc4)ccn3n2)C1 [e-02-12] | 1.9 |  | 129
O=C(Nc1nc2ccc(-c3cnc(CO[C@H]4CCC[C@@H]4O)nc3)cc2s1)C1CC(N2CCc3ccccc32)C1 (some centres unmarked) [b-02-66] | 5 | 227 | 
C[C@H]1CN(CC(F)(F)F)CCN1C1CC(C(=O)Nc2nc3ccc(-c4cnc(CO[C@H]5CCC[C@@H]5O)nc4)cc3s2)C1 (stereo partly drawn) [b-07-01, N-(6-(2-((((1S,2S)-2-Hydroxycyclopentyl)oxy)methyl)pyrimidin-5-yl)benzo[d]thiazol-2-yl)-3-((S)-2-methyl-4-(2,2,2-trifluoroethyl)piperazin-1-yl)cyclobutane-1-carboxamide] | 2.34 | 58 | 
C[C@H]1CCCN1C1CC(C(=O)Nc2nc3ccc(-c4cnc(CO[C@H]5CCC[C@@H]5O)nc4)cc3s2)C1 (some centres unmarked) [b-02-26] | 1.75 | 126 | 
O=C(Nc1nc2ccc(-c3cnc(CO[C@H]4CCC[C@@H]4O)nc3)cc2s1)C1CC(N2CCOCC2CC2CC2)C1 (some centres unmarked) [b-02-71] | 2.36 | 105 | 
C[C@H]1CN(C(=O)OC(C)(C)C)CCN1[C@H]1C[C@@H](C(=O)Nc2nc3ccc(-c4cnc(CO[C@H]5CCC[C@@H]5O)nc4)cc3s2)C1 [b-04-01, tert-Butyl (S)-4-((1S,3R)-3-((6-(2-((((1S,2S)-2-hydroxycyclopentyl)oxy)methyl)pyrimidin-5-yl)benzo[d]thiazol-2-yl)carbamoyl)cyclobutyl)-3-methylpiperazine-1-carboxylate] | 5.49 | 51 | 
CCCOCc1ncc(-c2ccn3nc(NC(=O)[C@H]4C[C@@H](N5CCN(C(=O)c6ccnc(C)c6)C[C@@H]5C)C4)cc3c2)cn1 [e-02-14] | 1.64 | 139 | 
C[C@H]1CN(C(=O)c2ccccn2)CCN1[C@H]1C[C@@H](C(=O)Nc2nc3ccc(-c4cnc(CO[C@H]5CCC[C@@H]5O)nc4)cc3s2)C1 [b-04-11] | 1.89 | 38 | 
COc1cccc(C(=O)N2CCN([C@H]3C[C@@H](C(=O)Nc4nc5ccc(-c6cnc(CO[C@H]7CCC[C@@H]7O)nc6)cc5s4)C3)[C@@H](C)C2)n1 [b-04-20] | 1.12 | 39 | 
O=C(Nc1nc2ccc(-c3cnc(CO[C@H]4CCC[C@@H]4O)nc3)cc2s1)C1CC2(CCN(C(=O)c3cccnc3)CC2)C1 [d-03-07] | 0.852 | 139 | 
CN1CC(F)(COc2c(-c3cnc(CO[C@H]4CCC[C@@H]4O)nc3)ccc3nc(NC(=O)C4CC4)sc23)C1 [c-05-01, N-(7-((3-Fluoro-1-methylazetidin-3-yl)methoxy)-6-(2-((((1S,2S)-2-hydroxycyclopentyl)oxy)methyl)pyrimidin-5-yl)benzo[d]thiazol-2-yl)cyclopropanecarboxamide] | 5.48 | 233 | 
O=C(Nc1cc2cc(-c3cnc(CO[C@H]4CCC[C@@H]4O)nc3)ccn2n1)C1CC1 [e-01-01, N-(5-(2-((((1S,2S)-2-hydroxycyclopentyl)oxy)methyl)pyrimidin-5-yl)pyrazolo[1,5-a]pyridin-2-yl)cyclopropanecarboxamide] | 2.89 | 279 | 
O=C(Nc1nc2ccc(-c3cnc(CO[C@H]4CCC[C@@H]4O)nc3)cc2s1)C1CC(N2CCCCO2)C1 (some centres unmarked) [b-02-77] | 2.6 | 187 | 
CN(C1CC(C(=O)Nc2nc3ccc(-c4cnc(CO[C@H]5CCC[C@@H]5O)nc4)cc3s2)C1)C12CC(C#N)(C1)C2 (some centres unmarked) [b-03-06] | 2.8 | 116 | 
CCCOCc1ncc(-c2ccn3nc(NC(=O)[C@H]4C[C@@H](N5CCN(C(=O)C6CCOCC6)C[C@@H]5CC)C4)cc3c2)cn1 [e-02-19] | 1.19 | 191 | 
CCCOCc1ncc(-c2ccn3nc(NC(=O)[C@H]4C[C@@H](N5CCN(C(=O)c6ccc(C(F)(F)F)cn6)C[C@@H]5C)C4)cc3c2)cn1 [e-02-16] | 1.85 | 175 | 
O=C(Nc1nc2ccc(-c3cnc(CO[C@H]4CCC[C@@H]4O)nc3)c(Cl)c2s1)C1CC1 [a-01-11] | 7.89 | 437 | 
O=C(Nc1nc2ccc(-c3cnc(CO[C@H]4CCC[C@@H]4O)nc3)cc2s1)C1CC(N2CC[C@@H](F)C2)C1 (some centres unmarked) [b-02-01] | 3.16 | 195 | 
CCCOCc1ncc(-c2ccc3nc(NC(=O)[C@H]4C[C@@H](N5CCN(C(=O)c6ccc(C(F)(F)F)cn6)C[C@@H]5C)C4)sc3c2)cn1 [b-04-26] | 1.22 | 86 | 

— patent publication US20240025893A1, “PYRIMIDINE-AND NITROGEN-CONTAINING BICYCLIC COMPOUND” (Asahi Kasei Pharma Corporation, priority 2020, published 2024)
